Measured values taken from patent publication US4652568A, “Theophylline-7-acetic acid ester of d,l-trans-sobrerol having mucosecretolytic-fluidizing and antibronchospastic activity, a process for its preparation and pharmaceutical compositions thereof” (priority 1984, dated 1987).

Columns and labels:
[1] = test system: bronchial mucus of bronchitic rabbits; experiment: Fluidizing "in vivo" activity: viscosity of the bronchial mucus of bronchitic rabbits; parameters: species or system rabbit; details: for Fluidizing "in vivo" activity of bronchial mucus: bronchitic rabbits, oral, relative to d,l-trans-sobrerol taken equal to 100
Description: Method for studying viscosity of the bronchial mucus of a bronchitic rabbit.
Viscosity of the mucus as withdrawn is studied by using a Contraves RM16 microviscosimeter and it is recorded by a Rheomat 15T-FC apparatus.

[2] = test system: bronchospasm induced by hystamine; experiment: Antibronchospastic activity in the guinea-pig, method of Konzett and Rossler; format: in vivo; details: drug i.v., inhibition of bronchospasm by hystamine (6 to 20 mg/kg i.v.), relative to theophylline, taken equal to 100
Description: Spotted female guinea-pigs, with a body weight of 300-500 g., are used.
As a spasmogenous agent, hystamine (6 to 20 mg/kg i.v.) is used. The activity is defined as percent inhibition of the bronchospasm induced by hystamine in the presence of the drug (i.v. administered), compared to the one of hystamine alone in the presence of the solvent.
The drugs are dissolved into 2% dimethylformamide in physiological solution (solvent).

[3] = Acute toxicity: LD50 in the mouse after a single oral administration; details: in vivo, mortality at 14th day, Litchfield and Wilcoxon
Description: Method for studying LD50 in the mouse after a single oral administration.
Groups of 10 Swiss albine, female, adult mice (20-22 g), fasting from the evening preceding the test, are treated orally with various doses (4 to 5) of the test drugs, dissolved/suspended in 1% hydroxycellulose (volume administered 20 ml/kg). Thereafter, the animals are fed again (Morini MIL fodder for mice).
The 50% lethal dose (LD50) is calculated by the method of Litchfield J. T. and Wilcoxon F. (J. Pharmacol. 96, 99-113, 1949) by utilizing the mortality data as obtained at the 14th day after the drug treatment.

[4] = Pharmacocinetics: plasma levels (HPLC) and presence in tracheo-bronchial excretion and pulmonary tissue; format: in vivo, Wistar rats; details: rat, 300 mg/kg oral
Description: Two groups of Wistar rats (165.div.250 g) are utilized. Before treatment, the animals were fasting for about 15 hours and were allowed to drink a 10% glucose solution ad libitum.
To the first group, the compound of formula (I) of this invention, orally (transoesophageal intubation) at the dose of 300 mg/kg is administered (a single administration) and at 0.5 h; 1 h; 1.5 h; 2 h; 3 h; 4 h; and 6 h from administration 5 rats/time are sacrificed. The blood, as collected into test tubes containing sodium heparin is centrifuged, and the plasma so obtained is utilized for quantitative analysis of the product, by means of high pressure liquid chromatography (HPLC) with an U.V. detector. To the second group, the compound of formula (I) of this invention at the dose of 300 mg/kg orally is administered (a single administration), and at 1 h and 2 h from administration, 5 rats/time are sacrificed (by bleeding). To each rat, trachea, bronchia and lungs are withdrawn. From trachea and bronchia, by means of two washings with a 0.5 ml syringe containing physiological solution, introduced into the trachea, the tracheo-bronchialexcretion is recovered, which is utilized to evaluate quantitatively the presence of the compound of formula (I) of the present invention. The pulmonary tissue, to which a KCl solution has been added, is homogenized by an ultra Turrax apparatus and utilized for the quantitative testing of the presence of the compound of formula (I) of this invention. […] In relation to the activity shown on by the compound of the invention as a mucosecretolytic-fluidizing-anti-bronchospastic agent, the present invention further provides pharmaceutical compositions containing the compound of formula (I) of this invention in dosage units.

[5] = test system: mucoproduction (bronchial secretion); experiment: Bronchosecretagogue activity: mucoproduction in the rabbit according to Scuri; format: in vivo; details: for Bronchosecretagogue activity: rabbit, oral, percent increase of mucoproduction II vs I period, relative to d,l-trans-sobrerol, taken equal to 100
Description: Method of mucoproduction in the rabbit according to Scuri R. et al, Boll. Chim. Farm.
Male brown rabbits weighing 2.8-3.5 kg are used. To said animals, by a surgical operation under anaesthesia, a T shaped tracheal cannula is applied, as described in the above mentioned bibliographic reference.
To the cannula, a container (a polypropylene 2 ml test tube) is applied for periodical collection of the bronchial secretion.
The study of mucoproduction, started at the fourth day after the operation, is divided into two 4 hour periods for collecting and measuring the mucus, and precisely from 8:30 to 12:30 (I) and from 12:30 to 16:30 (II).
The activity of each drug is tested by administering the same by oesophageal way (os) at the begining of the II period and by evaluating the percent increase of mucoproduction (weight of the mucus as collected) over the II period as compared to the I period.

Row | SMILES | Fluidizing "in vivo" activity of bronchial mucus [1] | fluidizing activity compared with d,l-trans-sobrerol, in words ([1]; summary statement) | Antibronchospastic activity [2] | LD50 at 336 h [3] [mg/kg] | presence at the level of tracheo-bronchial mucus ([4]; 1 h and 2 h) | presence in the pulmonary parenchyma ([4]; 1 h and 2 h) | absorption (course of the plasmatic levels) ([4]; single administration, plasma 0.5 to 6 h) | Bronchosecretagogue activity [5] | mucosecretolytic activity compared with d,l-trans-sobrerol, in words ([5]; summary statement)
1 | CC1=CC[C@H](C(C)(C)O)C[C@H]1OC(=O)Cn1cnc2c1c(=O)n(C)c(=O)n2C (relative stereo) [CO/1488, 5-hydroxy-α,α-4-trimethyl-3-cyclohexene-1-methanol-5-[2[7[1,2,3,6-tetrahydro-1,3-dimethyl-2,6-dioxopurinyl]]]acetate] | 110 | slight potency increase | 143 | 1900 | found also at the level of tracheo-bronchial mucus | in the pulmonary parenchyma | quick and good absorption | 128 | slight potency increase
2 | CC1=CC[C@H](C(C)(C)O)C[C@H]1O (relative stereo) [d,l-trans-sobrerol] | 100 | – | 0 | – | – | – | – | 100 | –
3 | Cn1c(=O)c2[nH]cnc2n(C)c1=O [theophylline] | 0 | – | 100 | – | – | – | – | 0 | –
